Laboratory results reported in US6630569B1, “Ectoparasiticide agents” (priority 1998, dated 2003).

Key:
[1] = test system: Lucilia cuprina larvae (1st-3rd stage); assay: Blowfly larvae test / development-inhibitory action; type: in vivo; settings: 100% = no flies hatched
Description: Blowfly Larvae Test/Development-inhibitory Action
Test animals: Lucilia cuprina larvae (1st-3rd stage)
(§1) Solvent: Dimethyl sulphoxide
20 mg of active compound are dissolved in one ml of dimethyl sulphoxide. To prepare a suitable formulation, the solution of active compound is diluted with water to the particular desired concentration.
About 20 Lucilia cuprina larvae are introduced into a test tube which contains about 1 cm^3 of horse meat and 0.5 ml of the preparation of active compound to be tested. After 24 hours and 48 hours, the effectiveness of the preparation of active compound is determined. The test tubes are transferred into beakers whose bottom is covered with sand. After a further two days, the test tubes are removed and the pupae are counted.
The effect of the preparation of active compound is assessed by the number of flies which have hatched after 1.5 times the development period of an untreated control. 100% means that no flies have hatched; 0% means that all flies have hatched normally.

[2] = test system: Adults of Ctenocephalides felis; assay: Test with cat fleas / oral uptake; type: in vivo; settings: dosage 100 μg; mortality after 24 h, blood feeding
Description: Test with Cat Fleas/oral Uptake
Test animals: Adults of Ctenocephalides felis
Solvent: Dimethyl sulphoxide (DMSO)
7.5 μl of this formulation are added to 3.5 ml of citrated cattle blood and stirred.
20 unfed adult fleas (Ctenocephalides felis, strain “Georgi”) are placed into a chamber (Ø 2.5 cm) whose top and bottom are closed with gauze. A metal cylinder whose underside is covered with parafilm is placed onto the chamber. […] Whereas the blood is warmed to 37° C., the temperature in the area of the flea chambers is adjusted to 25° C. Controls are mixed with the same volume of DMSO, without addition of a compound. The determinations are carried out in triplicate.
After 24 h, the mortality in % (=dead fleas) is determined, using imidacloprid as standard.

[3] = test system: Adult females of Boophilus microplus (parkhurst strain, SP-resistant); assay: Test with resistant monoxenous cattle ticks / SP-resistant Parkhurst strain (injection into abdomen); type: in vivo; settings: dosage 20 μg injected; 100% = no fertile eggs
Description: Test with Resistant Monoxenous Cattle Ticks/SP-resistant Parkhurst Strain
Test animals: Adult females of Boophilus microplus (parkhurst strain, SP-resistant) which have sucked themselves full
as §1
20 mg of active compound are dissolved in one ml of dimethyl sulphoxide, more dilute concentrations are prepared by dilution in the same solvent.
The test is carried out in five replications. 1 μl of the solutions is injected into the abdomen, and the animals are transferred into dishes and kept in a climatized room. After seven days, the activity is checked by examination for the position of fertile eggs. Eggs whose fertility is not visible from the outside are stored in glass tubes in a controlled-environment cabinet until the larvae have hatched after about 24 days. An activity of 100% means that the tick has not produced any fertile eggs.

[4] = test system: All stages of Boophilus microplus, pyrethroid-resistant strain; assay: In vivo test on ticks / mini-dip on cattle; settings: dosage 1000 μg, 100% = no ticks with fertile eggs
Description: In vivo Test on Ticks/mini-dip on Cattle
Test object: All stages of Boophilus microplus (larvae, metalarvae, nymphs, metanymphs and adults) pyrethroid-resistant strain.
Solution: Active compound 30% strength in methyl glycol and emulsifier NP 10 in a ratio of 1:1.
For the treatment of the cattle, concentrations of 1000, 300, 100, 30, 10 and 1 ppm are used, in a volume of 200 ml. The cattle hide to be treated is wetted with the solution of active compound for 1 min.
14×, in intervals of two days, cattle is infected with about 3000 14- to 28-day-old larvae of B. microplus which have not been fed. On day 23 p.i., defined areas on the surface of the cattle skin are wetted with the abovementioned preparation of active compound. From day 24 to 45 p.i., the female adult ticks which develop are counted, and the fertility of the eggs laid by these ticks is checked and used to determine the activity of the preparation of active compound.

silkworms = settings: in vivo; cited from earlier work

CC(C)C[C@@H]1C(=O)O[C@@H](Cc2ccc(N3CCOCC3)cc2)C(=O)N(C)[C@H](CC(C)C)C(=O)O[C@@H](C)C(=S)N(C)[C@H](CC(C)C)C(=O)O[C@@H](Cc2ccc(N3CCOCC3)cc2)C(=O)N(C)[C@H](CC(C)C)C(=O)O[C@@H](C)C(=O)N1C [compound 9, Cyclo-(N-methyl-L-leucinyl-D-thiolactyl-N-methyl-L-leucinyl-D-4-morpholino-phenyllactyl-N-methyl-L-leucinyl-D-lactyl-N-methyl-L-leucinyl-D-4-N-morpholinophenyllactyl-)]
Activity (in %) ([1]; dosage 100 ppm): 100% | Activity (in %) ([1]; dosage 1000 ppm): 100% | Activity (in %) [2]: 100%

CC(C)C[C@H]1C(=O)O[C@H](Cc2ccccc2)C(=O)N(C)[C@@H](CC(C)C)C(=O)O[C@H](C)C(=O)N(C)[C@@H](CC(C)C)C(=O)O[C@H](Cc2ccccc2)C(=O)N(C)[C@@H](CC(C)C)C(=O)O[C@H](C)C(=O)N1C [PF 1022A, cyclo(-N-methyl-L-leucinyl-D-lactyl-N-methyl-L-leucinyl-D-phenyllactyl-N-methyl-L-leucinyl-D-lactyl-N-methyl-L-leucinyl-D-phenyllactyl-)]
Activity (in %) ([1]; dosage 1000 ppm): 0% | Activity (in %) [3]: 0% | Activity (in %) [2]: 0% | Activity (in %) [4]: 0% | insecticidal activity against silkworms (silkworms): insecticidal activity

CC(C)C[C@H]1C(=O)O[C@H](C(C)C)C(=O)N(C)[C@@H](CC(C)C)C(=O)O[C@H](C(C)C)C(=O)N(C)[C@@H](CC(C)C)C(=O)O[C@H](C(C)C)C(=O)N(C)[C@@H](CC(C)C)C(=O)O[C@H](C(C)C)C(=O)N1C [bassianolide]
insecticidal activity against silkworms (silkworms): insecticidal activity
